Patent US11129820B2, “Ferroportin-inhibitor salts” (Vifor (International) AG, priority 2017, dated 2021)

Tested on: Hbb th3/+ mice
Assay: Mouse model of β-thalassemia intermedia (Hbb th3/+ mice)
Type: in vivo
Settings: for Decrease in RDW by 20/60 mg/kg compound / Decrease in ^58Fe spleen iron content by 20/60 mg/kg compound / Decrease in blood reticulocyte counts by 20/60 mg/kg compound / Decrease in leukocyte counts by 20/60 mg/kg compound / Decrease in serum erythropoietin by 20/60 mg/kg compound / Increase in blood erythrocyte counts by 20/60 mg/kg compound / Increase in hematocrit by 20/60 mg/kg compound / Prevention of liver ^58Fe loading by 20/60 mg/kg / Decrease in serum iron by 20/60 mg/kg compound / Decreased in ROS in bone marrow erythrocytes / Decrease in relative spleen weight by 20/60 mg/kg: % change to vehicle; for Correction of anemia at day 20-48 by 20/60 mg/kg: hemoglobin difference to vehicle; for Decrease in serum iron by 20/60 mg/kg compound: dosed for 3 h
Procedure: The efficacy of Fpn inhibitors is investigated using a mouse model of transfusion-independent β-thalassemia. Mice with heterozygous deletion of β 1 and β 2 globin genes (called Hbb th3/+ mice) develop transfusion-independent anemia, ineffective erythropoiesis, splenomegaly and secondary iron overload in spleen, liver and kidneys. […] Hbb th3/+ mice are dosed twice daily with either compound at 20 or 60 mg/kg or with methylcellulose (10 ml/kg, Sigma, Cat. 274429) as a vehicle. Between both doses mice have access to drinking water supplemented with 1 mM ^58Fe(II)-sulfate (Vifor Pharma, Batch No. ROR 3096) and 10 mM ascorbic acid (Sigma, Cat. 795437) for 6 h. The concentration of ^58Fe(II)-Sulfate supplied in the drinking water is adjusted to substitute for intake of standard rodent diet with iron content of 250 ppm. Water without ^58Fe(II)-Sulfate and ascorbic acid is provided during the remaining 18 h. Dosing of Fpn inhibitors or vehicle followed by exposure to iron-containing water is repeated for 20 to 46 days in individual experiments.
Additional hematologic parameters are measured in terminal blood using automated blood cell analyzer.
The inefficient erythropoiesis of Hbb th3/+ mice causes excessive proliferation of erythroid precursors in spleen, leading to splenomegaly.
Elevated erythropoietin levels in Hbb th3/+ mice induce overexpression of erythroferrone, an erythroid regulator hormone known to suppress hepcidin (Kautz L. et al, Nat. Genet., 2014). […] Erythroferrone is produced by erythrocyte precursors proliferating massively in spleens of Hbb th3/+ mice as a consequence of extramedullar erythropoiesis.
Increased iron demand due to inefficient erythropoiesis and chronically low hepcidin levels in patients with thalassemia causes organ iron loading and associated morbidities, such as hepatocellular carcinoma and heart failure (Rivella S. Haematologica, 2015). Hbb th3/+ mice absorb excessive amounts of iron as a consequence of inadequately low hepcidin levels relative to the high iron content in liver, spleen and kidney and increased ferroportin expression in duodenum (Gardenghi S., Blood, 2007).
Additionally, reactive oxygen species (ROS) are detected in bone marrow cells using a fluorescent indicator, CM-H2DCFDA (Thermo Fisher Scientific, Cat. C6827).
Data are expressed as difference to the vehicle control group for hemoglobin and as % change to the vehicle control group for all other parameter shown

[1] = 20 mg/kg twice daily for 20-46 days
[2] = 60 mg/kg twice daily for 20-46 days
[3] = first value of the pair (20 mg/kg; dose not printed in this line)
[4] = second value of the pair (60 mg/kg; dose not printed in this line)

In the case of O=C(NCc1ncccc1F)c1cnc(CCNCCc2nc3ccccc3[nH]2)o1 [Example Compound No. 1], the “Decrease in RDW by 20/60 mg/kg compound” value [1] was 3%, the “Decrease in ^58Fe spleen iron content by 20/60 mg/kg compound” value (shortened to “Decrease in ^58Fe spleen iron content”) [1] was 14% and the “Decrease in blood reticulocyte counts by 20/60 mg/kg compound” value (“Decrease in blood reticulocyte counts” below) [1] was 8%. For the same compound, the “Decrease in leukocyte counts by 20/60 mg/kg compound” value (from here on “Decrease in leukocyte counts”) [1] was 32%, the “Decrease in serum erythropoietin by 20/60 mg/kg compound” value (shortened to “Decrease in serum erythropoietin”) [1] was 64% and the “Increase in blood erythrocyte counts by 20/60 mg/kg compound” value (“Increase in blood erythrocyte counts” for short) [1] was 4%. For the same compound, the “Increase in hematocrit by 20/60 mg/kg compound” value (from here on “Increase in hematocrit”) [1] was 0%, the “Prevention of liver ^58Fe loading by 20/60 mg/kg” value (“Prevention of liver ^58Fe loading” below) [1] was 12% and the Correction of anemia at day 20-48 by 20/60 mg/kg (20 mg/kg twice daily) was 6 g/L. For the same compound, the “Decrease in serum iron by 20/60 mg/kg compound” value (“Decrease in serum iron” for short) (20 mg/kg) was 49%, the “Decrease in RDW by 20/60 mg/kg compound” value [2] was 16% and the “Decrease in ^58Fe spleen iron content” value [2] was 48%. For the same compound, the “Decrease in blood reticulocyte counts” value [2] was 39%, the “Decrease in leukocyte counts” value [2] was 44% and the “Decrease in serum erythropoietin” value [2] was 78%. The “Increase in blood erythrocyte counts” value [2] was 8%, the “Increase in hematocrit” value [2] was 4% and the “Prevention of liver ^58Fe loading” value [2] was 40%. The Correction of anemia at day 20-48 by 20/60 mg/kg (60 mg/kg twice daily) was 20 g/L, the “Decrease in serum iron” value (60 mg/kg) was 66% and the “Decreased in ROS in bone marrow erythrocytes” value (“Decreased in ROS” below) [3] was 20%. For the same compound, the “Decreased in ROS” value [4] was 45%.

For O=C(NCc1ncccc1F)c1cnc(C2CN(CCc3nc4ccccc4[nH]3)C2)o1 [Example Compound No. 2], the “Decrease in RDW by 20/60 mg/kg compound” value [1] was 0%, the “Decrease in ^58Fe spleen iron content” value [1] was 13% and the “Decrease in blood reticulocyte counts” value [1] was 0%. For the same compound, the “Decrease in leukocyte counts” value [1] was 29%, the “Decrease in relative spleen weight by 20/60 mg/kg” value [1] was 16% and the “Decrease in serum erythropoietin” value [1] was 4%. For the same compound, the “Increase in blood erythrocyte counts” value [1] was 0%, the “Increase in hematocrit” value [1] was 0% and the “Prevention of liver ^58Fe loading” value [1] was 14%. For the same compound, the “Correction of anemia at day 20-48 by 20/60 mg/kg” value (shortened to “Correction of anemia”) (20 mg/kg twice daily) was 3 g/L, the “Decrease in serum iron” value (20 mg/kg) was 50% and the “Decrease in RDW by 20/60 mg/kg compound” value [2] was 15%. For the same compound, the “Decrease in ^58Fe spleen iron content” value [2] was 40%, the “Decrease in blood reticulocyte counts” value [2] was 11% and the “Decrease in leukocyte counts” value [2] was 55%. The “Decrease in relative spleen weight by 20/60 mg/kg” value [2] was 47%, the “Decrease in serum erythropoietin” value [2] was 27% and the “Increase in blood erythrocyte counts” value [2] was 33%. The “Increase in hematocrit” value [2] was 15%, the “Prevention of liver ^58Fe loading” value [2] was 47% and the “Correction of anemia” value (60 mg/kg twice daily) was 11 g/L. The “Decrease in serum iron” value (60 mg/kg) was 69%, the “Decreased in ROS” value [3] was 13% and the “Decreased in ROS” value [4] was 65%.

O=C(NCc1ncccc1F)c1csc(CCNCc2nc3ccccc3[nH]2)n1 [Example Compound No. 40] was tested, and the “Decrease in ^58Fe spleen iron content” value [1] was 19%, the “Decrease in blood reticulocyte counts” value [1] was 19% and the “Decrease in leukocyte counts” value [1] was 0%. The “Increase in blood erythrocyte counts” value [1] was 2%, the “Increase in hematocrit” value [1] was 0% and the “Prevention of liver ^58Fe loading” value [1] was 20%. For the same compound, the “Correction of anemia” value (20 mg/kg twice daily) was 6 g/L, the “Decrease in serum iron” value (20 mg/kg) was 28% and the “Decrease in ^58Fe spleen iron content” value [2] was 51%. The “Decrease in blood reticulocyte counts” value [2] was 43%, the “Increase in blood erythrocyte counts” value [2] was 22% and the “Increase in hematocrit” value [2] was 1%. The “Prevention of liver ^58Fe loading” value [2] was 48%, the “Correction of anemia” value (60 mg/kg twice daily) was 13 g/L and the “Decrease in serum iron” value (60 mg/kg) was 58%.
